Measured values from patent publication US20220315888A1, “CULTURE METHOD FOR RETINAL ORGANOIDS” (University of Newcastle Upon Tyne, priority 2019, published 2022).
Entries after “also recorded” stand apart in the source; their conditions may differ.

Tests used:
Type in all cases: cell-based, human
[1] = system: Rhodopsin expression in retinal organoids derived from hESCs; experiment: Immunohistochemistry quantification of Rhodopsin+ cells (rods) at day 150; conditions: addition day 90-120, organoids at day 150, compared to vehicle control
Experimental: Human Pluripotent Stem Cells differentiation to retinal organoids Retinal organoids were differentiated from the CRX-GFP H9 human ESC cell line using a feeder-free system. ESCs were expanded in […] Technologies, 05850) at 37° C. and 5% CO2 on 6 well plates pre-coated with Low Growth Factor Matrigel (Corning, 354230). The retinal organoids were generated following a protocol described in Collin et al., 2019 [25] with addition of various supplements, which are shown in FIG. 1. […] DAPT was only added from day 30-42 (for day 30-60 combined addition with RA from day 30-60), day 60-72 (for the combined addition with RA from day 60-90), day 90-102 (for the combined addition with RA from day 90-120) and day 30-42 (for the combined addition with RA from day 30-120). Retinal organoids were collected on day 150 and fixed in 2% PFA for 30 minutes, followed by three washes in Phosphate-buffered saline (PBS), incubated overnight in 30% sucrose in PBS, embedded in Optical Cutting medium (OCT) ([…], UK) and frozen at -20° C. Ten-micrometre cryostat sections were collected using a Leica Cm1860 cryostat (Leica, Germany) onto Superfrost Plus slides and stored at -20° C. in slide boxes prior to immunostaining. Cryosections were air-dried, washed several times in PBS and incubated in blocking solution (10% normal goat serum, 0.3% Triton-X-100 in PBS) for one hour at room temperature. Slides were incubated with the appropriate primary antibody overnight at 4° C. (Table 2). After rinsing with PBS, sections were incubated with the secondary antibody for 2 hours at room temperature. Alexa Fluor 647 and 546 secondary antibodies (InvitrogenMolecular Probes) were used at a 1:1000 dilution. Negative controls were carried out by omitting the primary antibody. Afterwards, sections were washed three times in PBS and mounted with Vectashield (Vector Laboratories, Burlingame, Calif.) containing Hoechst (LifeTechnologies, UK). Images were captured using an Axio Imager upright microscope with Apotome (Zeiss, Germany) structured illumination fluorescence using 20× objective and 63× oil objective operated with AxioVision software. Final images are presented as a maximum projection and adjusted for brightness and contrast in Adobe Photoshop (Adobe Systems). Cell image quantitation was performed using the MATLAB software (Mathworks, MA) following the protocol described in Dorgau et al., 2019 [26]. A minimum of eight individual retinal organoids were analysed for each condition. All results were further analysed using Microsoft Excel and Prism (GraphPad, USA).

[2] = system: retinal organoids; experiment: Retinal organoid lamination and tissue architecture at day 150; conditions: day 150 of differentiation
Experimental: Human Pluripotent Stem Cells differentiation to retinal organoids Retinal organoids were differentiated from the CRX-GFP H9 human ESC cell line using a feeder-free system. ESCs were expanded in mTeSR™1 (StemCell Technologies, 05850) at 37° C. and 5% CO2 on 6 well plates pre-coated with Low Growth Factor Matrigel (Corning, 354230). The retinal organoids were generated following a protocol described in Collin et al., 2019 [25] with addition of various supplements, which are shown in FIG. 1.
The tested supplements include Retinoic Acid (RA) (0.5 μM or 1 μM Sigma-Aldrich UK), 9-cis-retinal (0.5 μM, Sigma-Aldrich UK), 11-cis-retinal (0.5 μM, BOC Sciences), Levodopa (0.5 μM, Sigma-Aldrich UK), Triiodothyronine (T3) (20 ng/ml or 40 ng/ml, Sigma-Aldrich) and DAPT (10 μM Sigma-Aldrich UK) singly or in combination with each other from day 18 of differentiation for specific durations (day 18 onwards, day 30-60, day 60-90, day 90-120 and day 30-120), except for DAPT (FIG. 1). […]
(§1) Images were captured using an Axio Imager upright microscope with Apotome (Zeiss, Germany) structured illumination fluorescence using 20× objective and 63× oil objective operated with AxioVision software. […]

[3] = system: OPN1MW/LW (L/M cones) expression in retinal organoids derived from hESCs; experiment: Immunohistochemistry quantification of OPN1MW/LW+ cells (L/M cones) at day 150; conditions: addition day 30-120; organoids at day 150; compared to vehicle control
Experimental: Human Pluripotent Stem Cells differentiation to retinal organoids Retinal organoids were differentiated from the CRX-GFP H9 human ESC cell line using a feeder-free system. ESCs were expanded in mTeSR™1 (StemCell Technologies, 05850) at 37° C. and 5% CO2 on 6 well plates pre-coated with Low Growth Factor Matrigel (Corning, 354230). The retinal organoids were generated following a protocol described in Collin et al., 2019 [25] with addition of various supplements, which are shown in FIG. 1. […]
as §1
Cell image quantitation was performed using the MATLAB software (Mathworks, MA) following the protocol described in Dorgau et al., 2019 [26]. A minimum of eight individual retinal organoids were analysed for each condition. All results were further analysed using Microsoft Excel and Prism (GraphPad, USA).

For CC1=C(/C=C/C(C)=C\C=C\C(C)=C\C=O)C(C)(C)CCC1 [9-cis-retinal], the “Rhodopsin+ cells (rods), immunohistochemistry quantification” value (from here on “Rhodopsin+ cells (rods)”) [1] was “lower”.
With CC1=C(/C=C/C(C)=C/C=C/C(C)=C/C=O)C(C)(C)CCC1 [11-cis-retinal] the “Rhodopsin+ cells (rods)” value [1] was “lower; also recorded: reduction”.
For C[C@H](NC(=O)Cc1cc(F)cc(F)c1)C(=O)N[C@H](C(=O)OC(C)(C)C)c1ccccc1 [DAPT], the “Effect on tissue architecture and lamination of the retinal organoids” value [2] was “did not interfere”.
In the case of CC1=C(/C=C/C(C)=C/C=C/C(C)=C/C(=O)O)C(C)(C)CCC1 [RA, all-trans-retinoic acid], the “Rhodopsin+ cells (rods)” value [1] was “reduction”, the “Rhodopsin+ cells (rods)” value ([1]; listed as RA alone) was “lower” and the “OPN1MW/LW+ cells (L/M cones), IHC quantification” value [3] was “significantly enhanced”.
